Source: article PMC6327993, “Synthesis carbonic anhydrase enzyme inhibition and antioxidant activity of novel benzothiazole derivatives incorporating glycine, methionine, alanine, and phenylalanine moieties” (Journal of Enzyme Inhibition and Medicinal Chemistry, 2018)

Tests used:
[1] = DPPH radical scavenging activity
Experimental: Antioxidant activity was determined based on the ability of the antioxidants to act as radical scavengers towards the stable free radical, 1,1-diphenyl-2-picrylhydrazyl (DPPH). As detailed by Yang et al.[40], 1 ml of antioxidant solution (solubilised in ethanol) was added to 3 ml of a 0.1 mM ethanolic solution of DPPH. After 30 min at ambient temperature in darkness, absorbance readings were taken at 517 nm. Inhibition (%) was calculated using the equation [1–(As−Ao)/Ab]×100 where As is the absorbance reading for samples containing antioxidant, Ao is the absorbance of the antioxidant in pure methanol and Ab corresponded to the absorbance of the DPPH solution.

hCA II = hCA II (Homo sapiens, UniProt P00918); assay: stopped flow CO2 hydrase assay, hCA II; format: biochemical; conditions: mean from three different assays, errors ±5–10%, read-out: KI hCAII
Experimental: (§1) An applied photophysics stopped-flow instrument has been used for assaying the CA catalysed CO2 hydration activity by using method of Khalifah[34]. Phenol red (at a concentration of 0.2 mM) has been used as an indicator, working at the absorbance maximum of 557 nm, with 20 mM HEPES (pH 7.5) as buffer, and 20 mM Na2SO4 (for maintaining constant the ionic strength), following the initial rates of the CA-catalysed CO2 hydration reaction for a period of 10–100 s. The CO2 concentrations ranged from 1.7 to 17 mM for the determination of the kinetic parameters and inhibition constants. […] The uncatalysed rates were determined in the same manner and subtracted from the total observed rates. Stock solutions of inhibitor (0.1 mM) were prepared in distilled–deionised water and dilutions up to 0.01 nM were done thereafter with the assay buffer. Inhibitor and enzyme solutions were preincubated together for 15 min at room temperature prior to assay, in order to allow the formation of the E–I complex. The inhibition constants were obtained by non-linear least-square methods using PRISM (www.graphpad.com), and non-linear least squares methods, values representing the mean of at least three different determinations, as described earlier by us[35–39].

hCA I = hCA I (Homo sapiens, UniProt P00915); assay: stopped flow CO2 hydrase assay, hCA I; format: biochemical; conditions: mean from three different assays, errors ±5–10%
Experimental: as §1

hCA V = hCA V (Homo sapiens, UniProt P35218); assay: stopped flow CO2 hydrase assay, hCA V; format: biochemical; conditions: mean from three different assays, errors ±5–10%
Experimental: as §1

hCA XIII = hCA XIII (Homo sapiens, UniProt Q8N1Q1); assay: stopped flow CO2 hydrase assay, hCA XIII; format: biochemical; conditions: mean from three different assays, errors ±5–10%
Experimental: as §1

hCA V, sequence (P35218 39-305): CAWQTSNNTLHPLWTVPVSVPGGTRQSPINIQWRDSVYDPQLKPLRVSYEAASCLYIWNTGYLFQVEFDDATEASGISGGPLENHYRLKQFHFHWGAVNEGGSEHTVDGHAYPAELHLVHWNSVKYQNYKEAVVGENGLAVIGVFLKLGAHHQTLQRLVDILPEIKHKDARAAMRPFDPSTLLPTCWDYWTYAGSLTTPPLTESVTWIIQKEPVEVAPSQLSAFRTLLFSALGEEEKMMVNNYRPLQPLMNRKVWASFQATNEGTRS
hCA I, sequence (P00915 whole entry): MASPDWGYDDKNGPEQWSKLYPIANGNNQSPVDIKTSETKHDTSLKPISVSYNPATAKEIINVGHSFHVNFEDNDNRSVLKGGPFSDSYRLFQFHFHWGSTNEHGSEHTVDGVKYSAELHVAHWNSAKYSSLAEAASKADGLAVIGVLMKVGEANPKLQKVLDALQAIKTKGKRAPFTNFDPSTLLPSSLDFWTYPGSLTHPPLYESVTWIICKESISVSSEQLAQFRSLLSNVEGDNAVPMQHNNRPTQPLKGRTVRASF
hCA XIII, sequence (Q8N1Q1 whole entry): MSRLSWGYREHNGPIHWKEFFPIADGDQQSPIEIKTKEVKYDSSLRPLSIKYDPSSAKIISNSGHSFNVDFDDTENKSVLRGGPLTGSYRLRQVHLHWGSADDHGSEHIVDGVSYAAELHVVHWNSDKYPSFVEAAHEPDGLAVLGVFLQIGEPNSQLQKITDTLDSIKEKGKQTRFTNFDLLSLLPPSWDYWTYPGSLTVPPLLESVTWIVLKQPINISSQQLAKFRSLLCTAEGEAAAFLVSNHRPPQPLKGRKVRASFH

Compound | Antioxidant activity, % ([1]; 12.5 μg/ml) | Antioxidant activity, % ([1]; 25 μg/ml) | Antioxidant activity, % ([1]; 37.5 μg/ml) | Antioxidant activity, % ([1]; 62.5 μg/ml) | Antioxidant activity, % ([1]; 125 μg/ml) | Ki (hCA II) | Ki (hCA I) | melting point | Ki (hCA V) | Ki (hCA XIII)
COc1ccc(O)c(C(C)(C)C)c1 [BHA, reference compound] | 61.1% | 63.0% | 67.5% | 71.0% | 72.4% | – | – | – | – | –
Cc1ccc2nc(NC(=O)CNC(=O)OCc3ccccc3)sc2c1 [Compound 1] | 0% | 0% | 0% | 11.4% | 12.5% | 32.1 µM | 4.3 µM | 213 to 214 °C | 4.3 µM | 94.6 µM
Cc1ccc2nc(NC(=O)CNC(=O)OC(C)(C)C)sc2c1 [Compound 2] | 0% | 0% | 3.9% | 4.6% | 6.1% | 74.8 µM | > 100 µM | 212 to 213 °C | 65.5 µM | > 100 µM
CCOc1ccc2nc(NC(=O)CNC(=O)OCc3ccccc3)sc2c1 [Compound 5] | 12.0% | 15.0% | 25.0% | 32.0% | 38.0% | 82.3 µM | > 100 µM | 214 to 215 °C | > 100 µM | > 100 µM
CCOc1ccc2nc(NC(=O)CNC(=O)OC(C)(C)C)sc2c1 [Compound 7] | 13.0% | 15.0% | 22.5% | 24.8% | 28.3% | > 100 µM | > 100 µM | 171 to 172 °C | 60 µM | > 100 µM
Cc1ccc2nc(NC(=O)CNC(=O)OCC3c4ccccc4-c4ccccc43)sc2c1 [Compound 9, (9H-Fluoren-9-yl)methyl (2-((6-methylbenzo[d]thiazol-2-yl)amino)-2-oxoethyl)carbamate] | 4% | 4.6% | 5.3% | 5.8% | 6.4% | > 100 µM | 71.9 µM | 220 to 221 °C | 7.3 µM | > 100 µM
CS(=O)(=O)c1ccc2nc(NC(=O)CNC(=O)OCC3c4ccccc4-c4ccccc43)sc2c1 [Compound 10, (9H-Fluoren-9-yl)methyl(2-((6-(methylsulfonyl)benzo[d]thiazol-2-yl)amino)-2-oxoethyl)carbamate] | 0% | 0% | 22.5% | 23.1% | 24.5% | > 100 µM | 7.1 µM | – | 2.9 µM | > 100 µM
Cc1cccc2sc(NC(=O)CNC(=O)OCC3c4ccccc4-c4ccccc43)nc12 [Compound 11, (9H-Fluoren-9-yl)methyl (2-((4-methylbenzo[d]thiazol-2-yl)amino)-2-oxoethyl)carbamate] | 5% | 6.7% | 6.9% | 7.1% | 8.2% | 88.1 µM | > 100 µM | 218 to 219 °C | 74.5 µM | > 100 µM
Cc1ccc2nc(-c3ccc(NC(=O)C(Cc4ccccc4)NC(=O)OCc4ccccc4)cc3)sc2c1 (centres unmarked) [Compound 12, Benzyl (1-((4–(6-methylbenzo[d]thiazol-2-yl)phenyl)amino)-1-oxo-3-phenylpropan-2-yl)carbamate] | 0% | 3% | 3.4% | 5.8% | 6.1% | 37 µM | > 100 µM | 227 to 228 °C | > 100 µM | > 100 µM
CSCCC(NC(=O)OCc1ccccc1)C(=O)Nc1ccc(-c2nc3ccc(C)cc3s2)cc1 (centres unmarked) [Compound 13, Benzyl (1-((4–(6-methylbenzo[d]thiazol-2-yl)phenyl)amino)-4-(methylthio)-1-oxobutan-2-yl)carbamate] | 5% | 6.7% | 6.1% | 7.1% | 8.2% | 39.1 µM | > 100 µM | 200 to 201 °C | 41.2 µM | 84.9 µM
Cc1c(C)c2c(c(C)c1O)CC[C@@](C)(CCC[C@H](C)CCC[C@H](C)CCCC(C)C)O2 [α-Toc., α-tocopherol, reference compound] | 62.9% | 63.4% | 68.4% | 72.8% | 74.0% | – | – | – | – | –
Benzyl (3–(6-(methylsulfonyl)benzo[d]thiazol-2-yl)-2-oxopropyl)carbamate [Compound 8] | 0% | 2.1% | 6.6% | 19.2% | 20.7% | > 100 µM | 89.9 µM | – | 9 µM | > 100 µM
Benzyl (4–(6-ethoxybenzo[d]thiazol-2-yl)-3-oxo-1-phenylbutan-2-yl)carbamate [Compound 6] | 11.0% | 14.0% | 23.0% | 32.0% | 37.0% | > 100 µM | > 100 µM | – | > 100 µM | > 100 µM
Tert-butyl (4–(6-methylbenzo[d]thiazol-2-yl)-3-oxo-1-phenylbutan-2-yl)carbamate [Compound 4] | 0% | 5.7% | 5.8% | 9.6% | – | > 100 µM | > 100 µM | – | > 100 µM | > 100 µM
Tert-butyl (4–(6-methylbenzo[d]thiazol-2-yl)-3-oxobutan-2-yl)carbamate [Compound 3] | 3.3% | 3.4% | 5.3% | 7.5% | 7.7% | 50.4 µM | 90.5 µM | – | 86.9 µM | > 100 µM
